Target: T1, human recombinant HDAC6 (Homo sapiens, UniProt Q9UBN7)
T1 construct: purchased Calbiochem 382180
T1 sequence (Q9UBN7 1-1215): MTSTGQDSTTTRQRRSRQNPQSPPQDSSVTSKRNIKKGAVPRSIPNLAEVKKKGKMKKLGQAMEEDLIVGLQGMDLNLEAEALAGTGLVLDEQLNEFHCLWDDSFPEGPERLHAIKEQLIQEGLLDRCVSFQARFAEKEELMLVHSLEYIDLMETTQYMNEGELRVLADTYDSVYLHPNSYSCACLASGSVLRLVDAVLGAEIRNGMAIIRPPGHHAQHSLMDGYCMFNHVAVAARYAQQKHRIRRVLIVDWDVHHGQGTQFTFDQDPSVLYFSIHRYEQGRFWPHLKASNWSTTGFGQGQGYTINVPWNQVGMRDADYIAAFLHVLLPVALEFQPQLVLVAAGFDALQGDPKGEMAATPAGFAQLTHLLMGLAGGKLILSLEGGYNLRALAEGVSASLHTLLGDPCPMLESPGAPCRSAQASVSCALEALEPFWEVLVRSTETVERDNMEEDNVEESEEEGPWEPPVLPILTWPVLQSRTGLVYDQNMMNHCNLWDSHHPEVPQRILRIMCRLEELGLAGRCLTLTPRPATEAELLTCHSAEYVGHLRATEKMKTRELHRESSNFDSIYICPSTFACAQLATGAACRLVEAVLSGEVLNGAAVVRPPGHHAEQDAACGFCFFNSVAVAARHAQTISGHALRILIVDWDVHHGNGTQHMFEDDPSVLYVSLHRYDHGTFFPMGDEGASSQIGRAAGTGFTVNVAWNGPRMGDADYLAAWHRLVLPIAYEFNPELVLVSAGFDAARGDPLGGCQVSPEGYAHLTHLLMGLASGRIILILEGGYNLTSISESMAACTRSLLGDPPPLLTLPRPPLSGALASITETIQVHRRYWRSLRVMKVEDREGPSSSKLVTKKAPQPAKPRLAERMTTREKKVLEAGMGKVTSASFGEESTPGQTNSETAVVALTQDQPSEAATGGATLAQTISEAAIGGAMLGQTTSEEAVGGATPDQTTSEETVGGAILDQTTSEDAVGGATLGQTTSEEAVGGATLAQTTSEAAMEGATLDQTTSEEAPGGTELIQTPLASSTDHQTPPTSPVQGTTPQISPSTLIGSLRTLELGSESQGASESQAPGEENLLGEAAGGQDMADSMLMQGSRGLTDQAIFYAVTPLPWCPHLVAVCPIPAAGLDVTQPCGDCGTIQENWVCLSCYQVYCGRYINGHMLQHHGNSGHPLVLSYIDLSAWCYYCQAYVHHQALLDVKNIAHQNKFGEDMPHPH
Experiment: HDAC6 enzyme activity inhibition assay (HDAC Fluorimetric Drug Discovery Kit)
Format: biochemical
Details: for HDAC6 selectivity (fold): HDAC6 over HDAC1; for IC50: human recombinant HDAC6, same protocol as HDAC1, read-out: HDAC6
In short: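 Human recombinant HDAC1 or HDAC6 (0.3 μg) reacted with 10 μM Fluor de Lys-SIRT1 substrate and 5-fold compound dilutions for 60 min at 30 °C. Developer II added for 30 min, fluorescence read at Ex 360/Em 460; IC50 calculated from the readings.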

Row | SMILES | HDAC6 selectivity (fold) | IC50 [nM]
1 | CC(=O)N1CCCN(CCNC(=O)N(Cc2ccc(-c3nnc(C(F)F)o3)cc2F)c2ccccc2)CC1 [Compound 21999, 3-(2-(4-Acetyl-1,4-diazepan-1-yl)ethyl)-1-(4-(5-(difluoromethyl)-1,3,4-oxadiazol-2-yl)-2-fluorobenzyl)-1-phenylurea] | 85 | 117
2 | O=C(NCCN1CCCN(Cc2ccccc2)CC1)N(Cc1ccc(-c2nnc(C(F)F)o2)cc1F)c1ccccc1 [Compound 22000, 3-(2-(4-Benzyl-1,4-diazepan-1-yl)ethyl)-1-(4-(5-(difluoromethyl)-1,3,4-oxadiazol-2-yl)-2-fluorobenzyl)-1-phenylurea] | 61 | 165
3 | O=C(C1CC1)N1CCN(CCNC(=O)N(Cc2ccc(-c3nnc(C(F)F)o3)cc2F)c2ccccc2)CC1 [Compound 22001, 3-(2-(4-(Cyclopropanecarbonyl)piperazin-1-yl)ethyl)-1-(4-(5-(difluoromethyl)-1,3,4-oxadiazol-2-yl)-2-fluorobenzyl)-1-phenylurea] | 116 | 87
4 | O=C(NCCN1CCC(Cc2ccccc2)CC1)N(Cc1ccc(-c2nnc(C(F)F)o2)cc1F)c1ccccc1 [Compound 22004, 3-(2-(4-Benzylpiperidin-1-yl)ethyl)-1-(4-(5-(difluoromethyl)-1,3,4-oxadiazol-2-yl)-2-fluorobenzyl)-1-phenylurea] | 24 | 412
5 | O=C(NCCN1CCN(c2ccccc2)CC1)N(Cc1ccc(-c2nnc(C(F)F)o2)cc1F)c1ccccc1 [Compound 22007, 1-(4-(5-(Difluoromethyl)-1,3,4-oxadiazol-2-yl)-2-fluorobenzyl)-1-phenyl-3-(2-(4-phenylpiperazin-1-yl)ethyl)urea] | 40 | 249
6 | O=C(NCCN1CCN(c2ccccn2)CC1)N(Cc1ccc(-c2nnc(C(F)F)o2)cc1F)c1ccccc1 [Compound 22008, 1-(4-(5-(Difluoromethyl)-1,3,4-oxadiazol-2-yl)-2-fluorobenzyl)-1-phenyl-3-(2-(4-(pyridin-2-yl)piperazin-1-yl)ethyl)urea] | 73 | 138
7 | O=C(NCCN1CCN(c2ccc(F)cc2)CC1)N(Cc1ccc(-c2nnc(C(F)F)o2)cc1F)c1ccccc1 [Compound 22010, 1-(4-(5-(Difluoromethyl)-1,3,4-oxadiazol-2-yl)-2-fluorobenzyl)-3-(2-(4-(4-fluorophenyl)piperazin-1-yl)ethyl)-1-phenylurea] | 29 | 341
8 | O=C(NCCN1CCN(c2noc3ccccc23)CC1)N(Cc1ccc(-c2nnc(C(F)F)o2)cc1F)c1ccccc1 [Compound 22011, 3-(2-(4-(Benzo[d]isoxazol-3-yl)piperazin-1-yl)ethyl)-1-(4-(5-(difluoromethyl)-1,3,4-oxadiazol-2-yl)-2-fluorobenzyl)-1-phenylurea] | 31 | 320
9 | O=C(NCCN1CCN(c2ccc(Cl)c(Cl)c2)CC1)N(Cc1ccc(-c2nnc(C(F)F)o2)cc1F)c1ccccc1 [Compound 22012, 3-(2-(4-(3,4-Dichlorophenyl)piperazin-1-yl)ethyl)-1-(4-(5-(difluoromethyl)-1,3,4-oxadiazol-2-yl)-2-fluorobenzyl)-1-phenylurea] | 10 | 1020
10 | O=C(NCCN1CCN(Cc2ccccc2)CC1)N(Cc1ccc(-c2nnc(C(F)F)o2)cc1F)c1ccccc1 [Compound 22013, 3-(2-(4-Benzylpiperazin-1-yl)ethyl)-1-(4-(5-(difluoromethyl)-1,3,4-oxadiazol-2-yl)-2-fluorobenzyl)-1-phenylurea] | 51 | 197
11 | O=C(NCCN1CCN(CCc2ccccc2)CC1)N(Cc1ccc(-c2nnc(C(F)F)o2)cc1F)c1ccccc1 [Compound 22014, 1-(4-(5-(Difluoromethyl)-1,3,4-oxadiazol-2-yl)-2-fluorobenzyl)-3-(2-(4-phenethylpiperazin-1-yl)ethyl)-1-phenylurea] | 46 | 219

The next lines start with the values.

Row | HDAC6 selectivity (fold) | IC50 [nM] | SMILES
12 | 111 | 90 | CC(=O)N1CCN(CCNC(=O)N(Cc2ccc(-c3nnc(C(F)F)o3)cc2F)c2ccccc2)CC1 [Compound 21995, 3-(2-(4-Acetylpiperazin-1-yl)ethyl)-1-(4-(5-(difluoromethyl)-1,3,4-oxadiazol-2-yl)-2-fluorobenzyl)-1-phenylurea]
13 | 108 | 92 | O=C(NCCN1CCN(CCO)CC1)N(Cc1ccc(-c2nnc(C(F)F)o2)cc1F)c1ccccc1 [Compound 21996, 1-(4-(5-(Difluoromethyl)-1,3,4-oxadiazol-2-yl)-2-fluorobenzyl)-3-(2-(4-(2-hydroxyethyl)piperazin-1-yl)ethyl)-1-phenylurea]
14 | 109 | 91 | COCCN1CCN(CCNC(=O)N(Cc2ccc(-c3nnc(C(F)F)o3)cc2F)c2ccccc2)CC1 [Compound 21997, 1-(4-(5-(Difluoromethyl)-1,3,4-oxadiazol-2-yl)-2-fluorobenzyl)-3-(2-(4-(2-methoxyethyl)piperazin-1-yl)ethyl)-1-phenylurea]
15 | 153 | 66 | O=C(NCCN1CCN(CCCO)CC1)N(Cc1ccc(-c2nnc(C(F)F)o2)cc1F)c1ccccc1 [Compound 21998, 1-(4-(5-(Difluoromethyl)-1,3,4-oxadiazol-2-yl)-2-fluorobenzyl)-3-(2-(4-(3-hydroxypropyl)piperazin-1-yl)ethyl)-1-phenylurea]
16 | 85 | 118 | CN(C)CCCN1CCN(CCNC(=O)N(Cc2ccc(-c3nnc(C(F)F)o3)cc2F)c2ccccc2)CC1 [Compound 22002, 1-(4-(5-(Difluoromethyl)-1,3,4-oxadiazol-2-yl)-2-fluorobenzyl)-3-(2-(4-(3-(dimethylamino)propyl)piperazin-1-yl)ethyl)-1-phenylurea]
17 | 99 | 101 | O=C(NCCN1CCC(N2CCOCC2)CC1)N(Cc1ccc(-c2nnc(C(F)F)o2)cc1F)c1ccccc1 [Compound 22003, 1-(4-(5-(Difluoromethyl)-1,3,4-oxadiazol-2-yl)-2-fluorobenzyl)-3-(2-(4-morpholinopiperidin-1-yl)ethyl)-1-phenylurea]
18 | 79 | 126 | Cc1noc(C2CCN(CCNC(=O)N(Cc3ccc(-c4nnc(C(F)F)o4)cc3F)c3ccccc3)CC2)n1 [Compound 22005, 1-(4-(5-(Difluoromethyl)-1,3,4-oxadiazol-2-yl)-2-fluorobenzyl)-3-(2-(4-(3-methyl-1,2,4-oxadiazol-5-yl)piperidin-1-yl)ethyl)-1-phenylurea]
19 | 37 | 270 | CCN(CCNC(=O)N(Cc1ccc(-c2nnc(C(F)F)o2)cc1F)c1ccccc1)Cc1ccccc1 [Compound 22006, 3-(2-(Benzyl(ethyl)amino)ethyl)-1-(4-(5-(difluoromethyl)-1,3,4-oxadiazol-2-yl)-2-fluorobenzyl)-1-phenylurea]
20 | 97 | 103 | O=C(NCCN1CCN(c2ccncc2)CC1)N(Cc1ccc(-c2nnc(C(F)F)o2)cc1F)c1ccccc1 [Compound 22009, 1-(4-(5-(Difluoromethyl)-1,3,4-oxadiazol-2-yl)-2-fluorobenzyl)-1-phenyl-3-(2-(4-(pyridin-4-yl)piperazin-1-yl)ethyl)urea]

Source: US10717716B2, “1,3,4-oxadiazole derivative compounds as histone deacetylase 6 inhibitor, and the pharmaceutical composition comprising the same” (Chong Kun Dang Pharmaceutical Corp., priority 2015, dated 2020)
